Test results reported in US8299107B2, “Triazole compounds that modulate HSP90 activity” (Synta Pharmaceuticals Corporation, priority 2007, dated 2012).

Test system: Her2
Test: Degradation of Her2 in BT-474 cells, Western blot (Method 1)
Format: cell-based, human
Details: 0.5 μM, overnight, positive control
Protocol: Human high-Her2 breast carcinoma BT474 (HTB-20), SK-BR-3 (HTB-30) and MCF-7 breast carcinoma (HTB-22) from American Type Culture Collection, VA, USA were grown in Dulbecco's modified Eagle's medium with 4 mM L-glutamine and antibiotics (100 IU/ml penicillin and 100 ug/ml streptomycine; GibcoBRL). To obtain exponential cell growth; cells were trypsinized, counted and seeded at a cell density of 0.5×10^6 cells/ml regularly, every 3 days. All experiments were performed on day 1 after cell passage.
BT-474 cells are treated with 0.5 μM, 2 μM, or 5 μM of 17AAG (a positive control) or 0.5 μM, 2 μM, or 5 μM of a compound of the invention overnight in DMEM medium. After treatment, each cytoplasmic sample is prepared from 1×10^6 cells by incubation of cell lysis buffer (#9803, cell Signaling Technology) on ice for 10 minutes. The resulting supernatant used as the cytosol fractions is dissolved with sample buffer for SDS-PAGE and run on a SDS-PAGE gel, blotted onto a nitrocellulose membrane by using semi-dry transfer. Non-specific binding to nitrocellulose is blocked with 5% skim milk in TBS with 0.5% Tween at room temperature for 1 hour, then probed with anti-Her2/ErB2 mAb (rabbit IgG, #2242, Cell Signaling) and anti-Tubulin (T9026, Sigma) as housekeeping control protein. […]

C=CCNC1=C2C[C@@H](C)C[C@H](OC)[C@H](O)[C@@H](C)/C=C(\C)[C@H](OC(N)=O)[C@@H](OC)/C=C\C=C(/C)C(=O)NC(=CC1=O)C2=O [Compound 17AAG, 17-allylamino-17-demethoxygeldanamycin]
degradation of Her2: partial degradation of Her2
